Laboratory results taken from patent publication US6933126B2, “Membrane transportable fluorescent substrates” (Applera Corporation, priority 2001, dated 2005).

What was measured:
[1] = molecular target: T1, β-galactosidase in Psi-2-BAG-α cells (Escherichia coli, UniProt P00722); assay: FDG detection of β-galactosidase in Psi-2-BAG-α cells, passive load vs "SUPERFECT" complex; type: cell-based; settings: for Fluorescence (w "SUPERFECT") / Fluorescence (w/o "SUPERFECT"): Cells + Supernatant, 2 hrs, ex 485/20, em 530/25; for Fluorescence (w "SUPERFECT"): 0.6 mM FDG with 25 μl "SUPERFECT" carrier; for Fluorescence (w/o "SUPERFECT"): 0.6 mM FDG, passive load
T1 construct: expressed in transfected cells; host or cells: Psi-2-BAG-α cells (own knowledge: mouse NIH-3T3-derived psi-2 packaging line stably carrying the BAG lacZ retroviral vector)
T1 sequence (P00722 whole entry): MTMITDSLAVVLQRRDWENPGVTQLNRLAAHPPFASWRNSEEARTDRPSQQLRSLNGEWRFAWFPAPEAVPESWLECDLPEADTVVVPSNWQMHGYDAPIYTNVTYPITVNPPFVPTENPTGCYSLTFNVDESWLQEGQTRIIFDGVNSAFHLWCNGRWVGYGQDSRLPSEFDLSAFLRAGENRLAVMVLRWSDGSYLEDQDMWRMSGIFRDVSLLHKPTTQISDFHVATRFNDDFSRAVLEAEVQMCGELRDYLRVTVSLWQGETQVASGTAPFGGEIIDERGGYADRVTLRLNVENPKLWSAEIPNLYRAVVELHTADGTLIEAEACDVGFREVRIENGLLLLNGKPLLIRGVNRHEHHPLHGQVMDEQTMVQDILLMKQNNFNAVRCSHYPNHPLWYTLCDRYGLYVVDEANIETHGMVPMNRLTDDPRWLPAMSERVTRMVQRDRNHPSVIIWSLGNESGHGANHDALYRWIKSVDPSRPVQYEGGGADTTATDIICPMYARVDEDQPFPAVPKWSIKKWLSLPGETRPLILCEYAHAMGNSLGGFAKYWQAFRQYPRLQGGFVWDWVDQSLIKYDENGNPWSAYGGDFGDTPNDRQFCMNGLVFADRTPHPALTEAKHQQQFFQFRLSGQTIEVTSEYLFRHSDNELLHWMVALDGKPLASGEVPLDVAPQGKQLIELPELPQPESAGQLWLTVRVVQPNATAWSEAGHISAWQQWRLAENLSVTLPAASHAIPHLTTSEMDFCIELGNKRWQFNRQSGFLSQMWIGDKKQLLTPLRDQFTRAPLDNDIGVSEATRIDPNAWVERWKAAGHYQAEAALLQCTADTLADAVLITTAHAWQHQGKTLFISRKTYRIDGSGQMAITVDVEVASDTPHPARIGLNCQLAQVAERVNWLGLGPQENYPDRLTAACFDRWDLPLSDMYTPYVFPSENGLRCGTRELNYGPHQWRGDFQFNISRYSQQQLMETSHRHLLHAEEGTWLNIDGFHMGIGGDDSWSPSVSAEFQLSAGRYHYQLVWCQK
Protocol: A first experiment was conducted to determine the effect of complex formation on FDG detection of β-galactosidase in Psi-2-BAG-α cells. First, FDG detection was measured using FDG without a transporter or carrier complexed thereto (passive load). This measured value was compared to a measurement using a complex of FDG and an activated polyamino dendrimer (e.g., “SUPERFECT”, which is a trademark of Qiagen N.V.).
For the passive load test, two vials of cells were prepared. First, two vials each having 330,000 psi-2-BAG-α cells suspended in 250 μl 0.6 mM FDG in Opti-MEM were prepared. A first vial of cells was incubated at 4° C. for 2 hrs and the second vial of cells was incubated at 37° C. for 2 hrs.
For the polyamino dendrimer complex, two vials of cells were prepared in the following manner. First, two vials each having 330,000 psi-2-BAG-α cells suspended in 250 μl 0.6 mM FDG in Opti-MEM containing 25 μl “SUPERFECT” as a polycationic carrier were prepared. The first vial of cells was incubated at 4° C. for 2 hrs and the second vial of cells was incubated at 37° C. for 2 hrs.
Following incubation, 20 μl triplicate samples of the above four cell suspensions (passive/4° C., passive/37° C., “SUPERFECT”/4° C., “SUPERFECT”/37° C.) were added to a 96-well plate.
(§1) The 96-well plate was read on a Cytofluor 4000 with excitation filter 485/20 and emission filter 530/25. The data was analyzed as triplicate averages.

[2] = tested on: β-galactosidase complementation in FRAP/FKBP12 (B14) cells; assay: FDG detection of rapamycin-induced β-galactosidase complementation in FRAP/FKBP12 (B14) cells; type: cell-based; settings: for Fluorescence (w "SUPERFECT") / Fluorescence (w/o "SUPERFECT"): 90 min at 37° C.; for Fluorescence (w "SUPERFECT"): 0.6 mM FDG with "SUPERFECT" carrier; for Fluorescence (w/o "SUPERFECT"): 0.6 mM FDG, passive load; for Fluorescence signal to noise ratio (S/N): Induced cells
Protocol: A second experiment was conducted to determine the effect of fluorescent substrate complex formation on FDG detection of rapamycin-induced β-galactosidase complementation in FRAP/FKBPI2 (B14) cells.
A 96-well plate was plated with FRAP/FKBP12 cells at 10,000 cells per well. Half of the cells were incubated overnight with rapamycin to induce β-galactosidase complementation. The next day, the cells were washed with Opti-MEM. Half of the cells were incubated for 90 min at 37° C. with 254 μl 0.6 mM FDG (fluorescein-di-β-D-galactoside) in Opti-MEM. The remaining cells were incubated 90 min at 37° C. with 0.6 mM FDG, containing “SUPERFECT” as a carrier (14 μl “SUPERFECT” in 240 μl 0.6 mM FDG in Opti-MEM).
as §1

[3] = Induced cells (rapamycin overnight)

Structure (SMILES): O=C1OC2(c3ccc(O[C@@H]4O[C@H](CO)[C@H](O)[C@H](O)[C@H]4O)cc3Oc3cc(O[C@@H]4O[C@H](CO)[C@H](O)[C@H](O)[C@H]4O)ccc32)c2ccccc21 [FDG, fluorescein di-β-D-galactopyranoside]
- Fluorescence (w "SUPERFECT") ([1]; 4° C.): 8,343
- Fluorescence (w/o "SUPERFECT") ([1]; 4° C.): 807
- Fluorescence (w "SUPERFECT") ([1]; 37° C.): 33,943
- Fluorescence (w/o "SUPERFECT") ([1]; 37° C.): 2492
- Increase of fluorescence signal with Superfect-assisted load ([1]; Superfect-assisted load of FDG vs passive load): ≥ 10 fold
- Fluorescence (w "SUPERFECT") [2, 3]: 12,721
- Fluorescence (w/o "SUPERFECT") [2, 3]: 594
- Fluorescence signal to noise ratio (S/N) ([2]; "SUPERFECT" assisted load of FDG): approximately 37
- Fluorescence signal to noise ratio (S/N) ([2]; uncomplexed or passive load of FDG (w/o "SUPERFECT")): about 2
- Fluorescence (w "SUPERFECT") ([2]; Uninduced cells): 338
- Fluorescence (w/o "SUPERFECT") ([2]; Uninduced cells): 253
